Experimental data as given in US20110182850A1, “ORGANIC COMPOUNDS AND THEIR USES” (priority 2009, published 2011).

biological target: T1, HCV NS3-4A serine protease (full-length NS3-4A protein, genotype 1a, strain HCV-1) (Hepatitis C virus genotype 1a, UniProt P26664); assay: HCV NS3-4A protease assay; format: biochemical; conditions: Protease IC50
T1 construct: using the full-length NS3-4A protein (genotype 1a, strain HCV-1)
Procedure: The inhibitory activity of certain compounds of Table A against HCV NS3-4A serine protease is determined in a homogenous assay using the full-length NS3-4A protein (genotype 1a, strain HCV-1) and a commercially available internally-quenched fluorogenic peptide substrate as described by Taliani, M., et al. 1996 Anal. Biochem. 240:60-67, which is incorporated by reference in its entirety.

T1 sequence (P26664 1658-1711): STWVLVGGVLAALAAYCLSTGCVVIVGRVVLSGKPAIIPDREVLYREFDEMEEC
T1 sequence (P26664 1027-1657): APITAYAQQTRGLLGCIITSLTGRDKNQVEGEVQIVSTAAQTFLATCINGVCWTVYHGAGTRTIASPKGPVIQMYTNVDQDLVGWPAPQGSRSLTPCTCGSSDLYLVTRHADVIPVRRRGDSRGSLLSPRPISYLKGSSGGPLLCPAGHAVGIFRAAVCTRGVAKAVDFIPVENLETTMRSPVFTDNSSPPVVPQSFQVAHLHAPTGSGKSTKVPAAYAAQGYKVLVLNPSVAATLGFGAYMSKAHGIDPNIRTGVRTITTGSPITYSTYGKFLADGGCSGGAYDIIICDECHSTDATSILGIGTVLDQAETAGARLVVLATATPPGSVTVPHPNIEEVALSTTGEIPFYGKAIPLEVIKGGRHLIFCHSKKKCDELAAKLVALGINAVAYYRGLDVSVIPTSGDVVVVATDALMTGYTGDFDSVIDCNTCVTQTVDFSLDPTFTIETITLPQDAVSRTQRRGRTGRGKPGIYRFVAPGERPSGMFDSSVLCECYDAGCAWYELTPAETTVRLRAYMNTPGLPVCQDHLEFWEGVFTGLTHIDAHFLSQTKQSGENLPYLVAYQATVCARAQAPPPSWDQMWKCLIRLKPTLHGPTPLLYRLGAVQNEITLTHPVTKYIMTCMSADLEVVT

Compound	IC50
C=C[C@@H]1C[C@]1(NC(=O)[C@@H]1C[C@@]2(CN1C(=O)[C@@H](NC(=O)[C@@H](NC(=O)[C@@H]1CCCCN1CCF)C(C)(C)C)C(C)(C)C)C(C)(C)C21CCC1)C(=O)NS(=O)(=O)c1cccc2cc[nH]c12 [Compound 14, (5R,8S)-7-[(2S)-2-{[(2S)-2-({[(2S)-1-(2-fluoroethyl)piperidin-2-yl]carbonyl}amino)-3,3-dimethylbutanoyl]amino}-3,3-dimethylbutanoyl]-N-{(1R,2S)-1-[(1H-indol-7-ylsulfonyl)carbamoyl]-2-vinylcyclopropyl}-10,10-dimethyl-7-azadispiro[3.0.4.1]decane-8-carboxamide]	0.0065 µM
CC(C)N1CCCC[C@H]1C(=O)N[C@H](C(=O)N[C@H](C(=O)N1C[C@]2(CC1C(=O)NC1(C(=O)NS(=O)(=O)C3CC3)CC1(C)C)C(C)(C)C21CCC1)C(C)(C)C)C(C)(C)C (stereo partly drawn) [Compound 15, (5R)-N-{1-[(cyclopropylsulfonyl)carba-moyl]-2,2-dimethylcyclopropyl}-7-[(2S)-2-{[(2S)-2-({[(2S)-1-isopropylpiperidin-2-yl]carbonyl}amino)-3,3-dimethylbutanoyl]amino}-3,3-dimethylbutanoyl]-10,10-dimethyl-7-azadispiro[3.0.4.1]decane-8-carboxamide]	3.7 µM
C=C[C@@H]1C[C@]1(NC(=O)[C@@H]1C[C@@]2(CN1C(=O)[C@@H](NC(=O)[C@@H](NC(=O)[C@@H]1CCCCN1C(C)C)C(C)(C)C)C(C)(C)C)C(C)(C)C21CCC1)C(=O)NS(=O)(=O)c1ccccc1 [Compound 17, (5R,8S)-7-[(2S)-2-{[(2S)-2-({[(2S)-1-isopropylpiperidin-2-yl]carbonyl}amino)-3,3-dimethylbutanoyl]amino}-3,3-dimethylbutanoyl]-10,10-dimethyl-N-{(1R,2S)-1-[(phenylsulfonyl)carbamoyl]-2-vinylcyclopropyl}-7-azadispiro[3.0.4.1]decane-8-carboxamide]	0.0045 µM
C=C[C@@H]1C[C@]1(NC(=O)[C@@H]1C[C@@]2(CN1C(=O)[C@@H](NC(=O)[C@@H](NC(=O)[C@@H]1CCCCN1C(C)C)C(C)(C)C)C(C)(C)C)C(C)(C)C21CCC1)C(=O)NS(=O)(=O)Cc1ccccc1 [Compound 22, (5R,8S)-N-{(1R,2S)-1-[(benzylsulfonyl)carbamoyl]-2-vinylcyclopropyl}-7-[(2S)-2-{[(2S)-2-({[(2S)-1-isopropylpiperidin-2-yl]carbonyl}amino)-3,3-dimethylbutanoyl]amino}-3,3-dimethylbutanoyl]-10,10-dimethyl-7-azadispiro[3.0.4.1]decane-8-carboxamide]	0.014 µM
CC(C)N1CCCC[C@H]1C(=O)N[C@H](C(=O)N[C@H](C(=O)N1C[C@]2(C[C@H]1C(=O)NC1(C(=O)NS(=O)(=O)C3CC3)CC=CC1)C(C)(C)C21CCC1)C(C)(C)C)C(C)(C)C [Compound 23, (5R,8S)-N-{1-[(cyclopropylsulfonyl)carba-moyl]cyclopent-3-en-1-yl}-7-[(2S)-2-{[(2S)-2-({[(2S)-1-isopropylpiperidin-2-yl]carbonyl}amino)-3,3-dimethylbutanoyl]amino}-3,3-dimethylbutanoyl]-10,10-dimethyl-7-azadispiro[3.0.4.1]decane-8-carboxamide]	1.25 µM
CC(C)(C)[C@H](NC(=O)[C@@H]1CCCCN1CCF)C(=O)N[C@H](C(=O)N1C[C@]2(C[C@H]1C(=O)NC1(C(=O)NS(=O)(=O)C3CC3)CC=CC1)C(C)(C)C21CCC1)C(C)(C)C [Compound 24, (5R,8S)-N-{1-[(cyclopropylsulfonyl)carba-moyl]cyclopent-3-en-1-yl}-7-[(2S)-2-{[(2S)-2-({[(2S)-1-(2-fluoroethyl)piperidin-2-yl]carbonyl}amino)-3,3-dimethylbutanoyl]amino}-3,3-dimethylbutanoyl]-10,10-dimethyl-7-azadispiro[3.0.4.1]decane-8-carboxamide]	5.25 µM
CC(C)N1CCCCC1C(=O)N[C@H](C(=O)N[C@H](C(=O)N1C[C@]2(C[C@H]1C(=O)N[C@]1(C(=O)NS(=O)(=O)C3CC3)CC=CCC1)C(C)(C)C21CCC1)C(C)(C)C)C1CCCCC1 (stereo partly drawn) [Compound 25, (5R,8S)-7-[(2S)-2-{[(2S)-2-cyclohexyl-2-{[(1-isopropylpiperidin-2-yl)carbonyl]amino}acetyl]amino}-3,3-dimethylbutanoyl]-N-{(1S)-1-[(cyclopropylsulfonyl)carba-moyl]cyclohex-3-en-1-yl}-10,10-dimethyl-7-azadispiro[3.0.4.1]decane-8-carboxamide]	0.55 µM
CC(C)N1CCCCC1C(=O)N[C@H](C(=O)N[C@H](C(=O)N1C[C@]2(C[C@H]1C(=O)N[C@]1(C(=O)NS(=O)(=O)C3CC3)CC=CCC1)C(C)(C)C21CCC1)C(C)(C)C)C(C)(C)C (stereo partly drawn) [Compound 26, (5R,8S)-N-{(1S)-1-[(cyclopropylsulfonyl)carba-moyl]cyclohex-3-en-1-yl}-7-[(2S)-2-{[(2S)-2-{[(1-isopropylpiperidin-2-yl)carbonyl]amino}-3,3-dimethylbutanoyl]amino}-3,3-dimethylbutanoyl]-10,10-dimethyl-7-azadispiro[3.0.4.1]decane-8-carboxamide]	2.95 µM
CC(C)(C)[C@H](NC(=O)[C@@H](NC(=O)C1CCCCN1CCF)C1CCCCC1)C(=O)N1C[C@]2(C[C@H]1C(=O)N[C@]1(C(=O)NS(=O)(=O)C3CC3)CC=CCC1)C(C)(C)C21CCC1 (stereo partly drawn) [Compound 27, (5R,8S)-7-[(2S)-2-{[(2S)-2-cyclohexyl-2-({[1-(2-fluoroethyl)piperidin-2-yl]carbonyl}amino)acetyl]amino}-3,3-dimethylbutanoyl]-N-{(1S)-1-[(cyclopropylsulfonyl)carba-moyl]cyclohex-3-en-1-yl}-10,10-dimethyl-7-azadispiro[3.0.4.1]decane-8-carboxamide]	2.85 µM
CC(C)(C)[C@H](NC(=O)C1CCCCN1CCF)C(=O)N[C@H](C(=O)N1C[C@]2(C[C@H]1C(=O)N[C@]1(C(=O)NS(=O)(=O)C3CC3)CC=CCC1)C(C)(C)C21CCC1)C(C)(C)C (stereo partly drawn) [Compound 28, (5R,8S)-N-{(1S)-1-[(cyclopropylsulfonyl)carba-moyl]cyclohex-3-en-1-yl}-7-[(2S)-2-{[(2S)-2-({[1-(2-fluoroethyl)piperidin-2-yl]carbonyl}amino)-3,3-dimethylbutanoyl]amino}-3,3-dimethylbutanoyl]-10,10-dimethyl-7-azadispiro[3.0.4.1]decane-8-carboxamide]	3.15 µM
C=C[C@@H]1C[C@]1(NC(=O)[C@@H]1C[C@@]2(CN1C(=O)[C@@H](NC(=O)[C@@H](NC(=O)[C@@H]1CCCCN1CCF)C1CCCCC1)C(C)(C)C)C(C)(C)C21CCC1)C(=O)NS(=O)(=O)C1CC1 [Compound 29, (5R,8S)-7-[(2S)-2-{[(2S)-2-cyclohexyl-2-({[(2S)-1-(2-fluoroethyl)piperidin-2-yl]carbonyl}amino)acetyl]amino}-3,3-dimethylbutanoyl]-N-{(1R,2S)-1-[(cyclopropylsulfonyl)carba-moyl]-2-vinylcyclopropyl}-10,10-dimethyl-7-azadispiro[3.0.4.1]decane-8-carboxamide]	0.001 µM

same assay, conditions: read-out: Protease IC50

Compound	IC50
C=C[C@@H]1C[C@]1(NC(=O)[C@@H]1C[C@@]2(CN1C(=O)[C@@H](NC(=O)N[C@H](CN1CCN(C)CC1)C(C)(C)C)C(C)(C)C)C(C)(C)C21CCC1)C(=O)NS(=O)(=O)C1CC1 [Compound 16, (5R,8S)-N-{(1R,2S)-1-[(cyclopropylsulfonyl)carba-moyl]-2-vinylcyclopropyl}-7-{(2S)-2-[({(1S)-2,2-dimethyl-1-[(4-methylpiperazin-1-yl)methyl]propyl}carbamoyl)amino]-3,3-dimethylbutanoyl}-10,10-dimethyl-7-azadispiro[3.0.4.1]decane-8-carboxamide]	0.01 µM
C=C[C@@H]1C[C@]1(NC(=O)[C@@H]1C[C@@]2(CN1C(=O)[C@@H](NC(=O)N[C@H](CN(C)S(=O)(=O)c1ccccn1)C(C)(C)C)C(C)(C)C)C(C)(C)C21CCC1)C(=O)NS(=O)(=O)C1CC1 [Compound 18, (5R,8S)-N-{(1R,2S)-1-[(cyclopropylsulfonyl)carba-moyl]-2-vinylcyclopropyl}-7-[(2S)-2-({[(1S)-2,2-dimethyl-1-{[methyl(pyridin-2-ylsulfonyl)amino]methyl}prop-yl]carbamoyl}amino)-3,3-dimethylbutanoyl]-10,10-dimethyl-7-azadispiro[3.0.4.1]decane-8-carboxamide]	0.003 µM
C=C[C@@H]1C[C@]1(NC(=O)[C@@H]1C[C@@]2(CN1C(=O)[C@@H](NC(=O)C1CCCN(C(C)=O)C1)C(C)(C)C)C(C)(C)C21CCC1)C(=O)NS(=O)(=O)C1CC1 (stereo partly drawn) [Compound 19, (5R,8S)-7-[(2S)-2-{[(1-acetylpiperidin-3-yl)carbonyl]amino}-3,3-dimethylbutanoyl]-N-{(1R,2S)-1-[(cyclopropylsulfonyl)carba-moyl]-2-vinylcyclopropyl}-10,10-dimethyl-7-azadispiro[3.0.4.1]decane-8-carboxamide]	0.35 µM
C=C[C@@H]1C[C@]1(NC(=O)[C@@H]1C[C@@]2(CN1C(=O)[C@@H](NC(=O)N[C@H](CN(C)S(=O)(=O)N(C)C)C(C)(C)C)C(C)(C)C)C(C)(C)C21CCC1)C(=O)NS(=O)(=O)C1CC1 [Compound 20, (5R,8S)-N-{(1R,2S)-1-[(cyclopropylsulfonyl)carba-moyl]-2-vinylcyclopropyl}-7-[(2S)-2-({[(1S)-1-({[(dimethylamino)sulfonyl] (methyl)amino}methyl)-2,2-dimethylpropyl]carbamoyl}amino)-3,3-dimethylbutanoyl]-10,10-dimethyl-7-azadispiro[3.0.4.1]decane-8-carboxamide]	0.002 µM
